Reference: US20240132431A1, “METHOD FOR ALKYLATING ACIDIC FUNCTIONAL GROUP” (Chugai Seiyaku Kabushiki Kaisha, priority 2021, published 2024)

Target: T1, Bcl-2 protein (Recombinant Human Bcl-2 Protein) (Homo sapiens, UniProt P10415)
T1 construct: purchased Novus NBP2-34889
Assay: Binding evaluation of mixture library compounds to Bcl-2 using AS-MS (affinity selection mass spectrometry)
Conditions: ASMS Ratio(%)=(A−C)/B×100; for ASMS ratio (%) n = 1: replicate n = 1; for ASMS ratio (%) n = 2: replicate n = 2
How it was run: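 Pooled library of ~1200 compounds ([…] each, final) incubated with recombinant human Bcl-2 (20 μM final) in Tris-HCl pH 7.4, NaCl, Tween-20, DTT buffer, dark, 23° C., 1 h. Bound fraction recovered by SEC spin column, organic extraction, reversed-phase LC/MS. ASMS Ratio (%) = (A−C)/B×100 versus protein-free standard and SEC blank.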

[1] = AS-MS, mixture of 1200 compounds, Bcl-2
[2] = AS-MS on the mixture of 1200 library compounds

T1 sequence (P10415 whole entry): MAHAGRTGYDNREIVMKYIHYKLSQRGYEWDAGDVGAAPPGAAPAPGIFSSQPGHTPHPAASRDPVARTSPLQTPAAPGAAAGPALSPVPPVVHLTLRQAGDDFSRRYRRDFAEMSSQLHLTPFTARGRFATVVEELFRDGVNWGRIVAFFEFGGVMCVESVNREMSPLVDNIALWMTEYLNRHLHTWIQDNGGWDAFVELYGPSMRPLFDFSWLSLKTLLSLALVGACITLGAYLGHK

SMILES	ASMS ratio (%) n = 1 [1]	ASMS ratio (%) n = 2 [1]	ASMS ratio (%) n = 1 [2]	ASMS ratio (%) n = 2 [2]
CCOc1cccc(-c2csc(C(=O)N3CCN(c4ccc(C(=O)Nc5ccc(OC)cc5)nn4)CC3)c2)c1 [B1O001-01, 6-[4-[4-(3-Ethoxyphenyl)thiophene-2-carbonyl]piperazin-1-yl]-N-(4-methoxyphenyl)pyridazine-3-carboxamide]			−0.1%	−3.1%
CCOc1cccc(-c2ccc(C(=O)N3CCN(c4ccc(C(=O)Nc5ccc(OC)cc5)nn4)CC3)cc2C)c1 [B1O003-01, 6-[4-[4-(3-Ethoxyphenyl)-3-methylbenzoyl]piperazin-1-yl]-N-(4-methoxyphenyl)pyridazine-3-carboxamide]			0.0%	0.0%
CCOc1cccc(-c2ccc(C(=O)N3CCN(c4ccc(C(=O)Nc5ccc(OC)cc5)nn4)CC3)cc2F)c1 [B1O005-01, 6-[4-[4-(3-Ethoxyphenyl)-3-fluorobenzoyl]piperazin-1-yl]-N-(4-methoxyphenyl)pyridazine-3-carboxamide]			3.6%	−2.5%
CCOc1cccc(C#Cc2ccccc2C(=O)N2CCN(c3ccc(C(=O)Nc4ccc(OC)cc4)nn3)CC2)c1 [B1O007-01, 6-[4-[2-[2-(3-Ethoxyphenyl)ethynyl]benzoyl]piperazin-1-yl]-N-(4-methoxyphenyl)pyridazine-3-carboxamide]			4.5%	0.9%
CCOc1cncc(C#Cc2ccccc2C(=O)N2CCN(c3ccc(C(=O)Nc4ccc(OC)cc4)nn3)CC2)c1 [B1O008-01, 6-[4-[2-[2-(5-Ethoxypyridin-3-yl)ethynyl]benzoyl]piperazin-1-yl]-N-(4-methoxyphenyl)pyridazine-3-carboxamide]			1.1%	1.3%
CCOc1cccc(C#Cc2cncc(C(=O)N3CCN(c4ccc(C(=O)Nc5ccc(OC)cc5)nn4)CC3)c2)c1 [B1O009-01, 6-[4-[5-[2-(3-Ethoxyphenyl)ethynyl]pyridine-3-carbonyl]piperazin-1-yl]-N-(4-methoxyphenyl)pyridazine-3-carboxamide]			1.1%	1.3%
CCOc1cncc(C#Cc2cncc(C(=O)N3CCN(c4ccc(C(=O)Nc5ccc(OC)cc5)nn4)CC3)c2)c1 [B1O010-01, 6-[4-[5-[2-(5-Ethoxypyridin-3-yl)ethynyl]pyridine-3-carbonyl]piperazin-1-yl]-N-(4-methoxyphenyl)pyridazine-3-carboxamide]			0.0%	0.0%
CCOc1cccc(-c2ccccc2CCC(=O)N2CCN(c3ccc(C(=O)Nc4ccc(OC)cc4)nn3)CC2)c1 [B1O011-01, 6-[4-[3-[2-(3-Ethoxyphenyl)phenyl]propanoyl]piperazin-1-yl]-N-(4-methoxyphenyl)pyridazine-3-carboxamide]			0.0%	4.3%
CCOc1cncc(-c2ccccc2CCC(=O)N2CCN(c3ccc(C(=O)Nc4ccc(OC)cc4)nn3)CC2)c1 [B1O012-01, 6-[4-[3-[2-(5-Ethoxypyridin-3-yl)phenyl]propanoyl]piperazin-1-yl]-N-(4-methoxyphenyl)pyridazine-3-carboxamide]			0.8%	−0.9%
CCOc1cccc(-c2ccc(C(=O)N3CCN(c4ccc(C(=O)Nc5ccc(OC)cc5)nn4)CC3)c3ccccc23)c1 [B1O013-01, 6-[4-[4-(3-Ethoxyphenyl)naphthalene-1-carbonyl]piperazin-1-yl]-N-(4-methoxyphenyl)pyridazine-3-carboxamide]			2.2%	−4.0%
CCOc1cncc(-c2ccc(C(=O)N3CCN(c4ccc(C(=O)Nc5ccc(OC)cc5)nn4)CC3)c3ccccc23)c1 [B1O014-01, 6-[4-[4-(5-Ethoxypyridin-3-yl)naphthalene-1-carbonyl]piperazin-1-yl]-N-(4-methoxyphenyl)pyridazine-3-carboxamide]			2.5%	0.2%
CCOc1cccc(-c2cc(C(=O)N3CCN(c4ccc(C(=O)Nc5ccc(OC)cc5)nn4)CC3)cc(C(C)(C)C)c2)c1 [B1O015-01, 6-[4-[3-tert-Butyl-5-(3-ethoxyphenyl)benzoyl]piperazin-1-yl]-N-(4-methoxyphenyl)pyridazine-3-carboxamide]			6.0%	−2.7%
CCOc1cncc(-c2cc(C(=O)N3CCN(c4ccc(C(=O)Nc5ccc(OC)cc5)nn4)CC3)cc(C(C)(C)C)c2)c1 [B1O016-01, 6-[4-[3-tert-Butyl-5-(5-ethoxypyridin-3-yl)benzoyl]piperazin-1-yl]-N-(4-methoxyphenyl)pyridazine-3-carboxamide]			6.6%	0.7%
CCOc1cccc(-c2cc(C(=O)N3CCN(c4ccc(C(=O)Nc5ccc(OC)cc5)nn4)CC3)cc(C(F)(F)F)c2)c1 [B1O017-01, 6-[4-[3-(3-Ethoxyphenyl)-5-(trifluoromethyl)benzoyl]piperazin-1-yl]-N-(4-methoxyphenyl)pyridazine-3-carboxamide]			2.5%	0.0%

The remaining lines, values ahead:

ASMS ratio (%) n = 1 [1]	ASMS ratio (%) n = 2 [1]	ASMS ratio (%) n = 1 [2]	ASMS ratio (%) n = 2 [2]	SMILES
−2.1%	−3.1%			CCOc1cccc(-c2ccc(C(C)N3CCN(c4ccc(C(=O)NCC(F)(F)F)cc4)CC3)cc2)c1 (centres unmarked) [B1K097-01, 4-[4-[1-[4-(3-Ethoxyphenyl)phenyl]ethyl]piperazin-1-yl]-N-(2,2,2-trifluoroethyl)benzamide]
−1.1%	−2.4%			CCOc1cncc(-c2ccc(C(C)N3CCN(c4ccc(C(=O)NCC(F)(F)F)cc4)CC3)cc2)c1 (centres unmarked) [B1K098-01, 4-[4-[1-[4-(5-Ethoxypyridin-3-yl)phenyl]ethyl]piperazin-1-yl]-N-(2,2,2-trifluoroethyl)benzamide]
0.0%	0.0%			CCOc1cccc(-c2ccc(C(C)N3CCN(c4ccc(C(=O)NCC(F)(F)F)cc4)CC3)c(F)c2)c1 (centres unmarked) [B1K099-01, 4-[4-[1-[4-(3-Ethoxyphenyl)-2-fluorophenyl]ethyl]piperazin-1-yl]-N-(2,2,2-trifluoroethyl)benzamide]
0.0%	0.0%			CCOc1cncc(-c2ccc(C(C)N3CCN(c4ccc(C(=O)NCC(F)(F)F)cc4)CC3)c(F)c2)c1 (centres unmarked) [B1K100-01, 4-[4-[1-[4-(5-Ethoxypyridin-3-yl)-2-fluorophenyl]ethyl]piperazin-1-yl]-N-(2,2,2-trifluoroethyl)benzamide]
−2.4%	−3.0%			CCCNC(=O)c1ccc(N2CCN(Cc3cc(OC(C)C)cc(-c4cccc(OCC)c4)c3)CC2)cc1 [B1M015-01]
1.0%	0.4%			CCCNC(=O)c1ccc(N2CCN(Cc3cc(-c4cccc(OCC)c4)cc(C(F)(F)F)c3)CC2)nn1 [B1M027-01]
0.3%	0.0%			CCCNC(=O)c1ccc(N2CCN(Cc3cc(OC(F)(F)F)cc(-c4cccc(OCC)c4)c3)CC2)nn1 [B1M033-01]
2.2%	−3.1%			CCCNC(=O)c1ccc(N2CCN(Cc3ccccc3-c3cncc(OCC)c3)CC2)nn1 [B1M043-01]
27.6%	20.2%			CCCNC(=O)c1ccc(N2CCN(Cc3ccccc3C#Cc3cccc(OCC)c3)CC2)cc1 [B1M052-01]
0.9%	0.0%			CCCNC(=O)c1ccc(N2CCN(Cc3ccccc3C#Cc3cncc(OCC)c3)CC2)cc1 [B1M054-01]
−1.4%	−1.5%			CCCNC(=O)c1ccc(N2CCN(Cc3ccc(-c4cccc(OCC)c4)c(C)c3)CC2)cc1 [B1M058-01]
77.3%	46.1%			CCCNC(=O)c1ccc(N2CCN(Cc3ccc(-c4cncc(OCC)c4)cc3CC)CC2)cc1 [B1M075-01]
0.5%	1.5%			CCCNC(=O)c1ccc(N2CCN(Cc3ccc(-c4cncc(OCC)c4)cc3CC)CC2)nn1 [B1M076-01, 6-[4-[[4-(5-Ethoxypyridin-3-yl)-2-ethylphenyl]methyl]piperazin-1-yl]-N-propylpyridazine-3-carboxamide]
		0.5%	−1.5%	CCCNC(=O)c1ccc(N2CCN(Cc3ccc(-c4cncc(OCC)c4)cc3OC)CC2)nn1 [B1M100-01, 6-[4-[[4-(5-Ethoxypyridin-3-yl)-2-methoxyphenyl]methyl]piperazin-1-yl]-N-propylpyridazine-3-carboxamide]
		2.2%	2.6%	CCOc1cncc(-c2csc(C(=O)N3CCN(c4ccc(C(=O)Nc5ccc(OC)cc5)nn4)CC3)c2)c1 [B1O002-01, 6-[4-[4-(5-Ethoxypyridin-3-yl)thiophene-2-carbonyl]piperazin-1-yl]-N-(4-methoxyphenyl)pyridazine-3-carboxamide]
		2.8%	0.4%	CCOc1cncc(-c2ccc(C(=O)N3CCN(c4ccc(C(=O)Nc5ccc(OC)cc5)nn4)CC3)cc2C)c1 [B1O004-01, 6-[4-[4-(5-Ethoxypyridin-3-yl)-3-methylbenzoyl]piperazin-1-yl]-N-(4-methoxyphenyl)pyridazine-3-carboxamide]
		4.7%	0.8%	CCOc1cncc(-c2ccc(C(=O)N3CCN(c4ccc(C(=O)Nc5ccc(OC)cc5)nn4)CC3)cc2F)c1 [B1O006-01, 6-[4-[4-(5-Ethoxypyridin-3-yl)-3-fluorobenzoyl]piperazin-1-yl]-N-(4-methoxyphenyl)pyridazine-3-carboxamide]
